# Columns and labels:
# [1] = target: T1, progesterone receptor (hormonal receptor of rabbit uterus cytosol) (Oryctolagus cuniculus, UniProt P06186); assay: Progestomimetic activity by the method of hormonal receptors: displacement of tritiated product R in uterus cytosol; type: binding; conditions: tritiated 17,21-dimethyl-19-nor-Δ4,9-pregnadiene-3,20-dione, 0° C., 2 hours, progesterone = 100
# T1 construct: The uterus was removed and homogenized in a buffered mixture; from tissue; host or cells: uterus cytosol (105,000 g supernatant) of impuberic rabbits primed with estradiol
# T1 sequence (P06186 1-930): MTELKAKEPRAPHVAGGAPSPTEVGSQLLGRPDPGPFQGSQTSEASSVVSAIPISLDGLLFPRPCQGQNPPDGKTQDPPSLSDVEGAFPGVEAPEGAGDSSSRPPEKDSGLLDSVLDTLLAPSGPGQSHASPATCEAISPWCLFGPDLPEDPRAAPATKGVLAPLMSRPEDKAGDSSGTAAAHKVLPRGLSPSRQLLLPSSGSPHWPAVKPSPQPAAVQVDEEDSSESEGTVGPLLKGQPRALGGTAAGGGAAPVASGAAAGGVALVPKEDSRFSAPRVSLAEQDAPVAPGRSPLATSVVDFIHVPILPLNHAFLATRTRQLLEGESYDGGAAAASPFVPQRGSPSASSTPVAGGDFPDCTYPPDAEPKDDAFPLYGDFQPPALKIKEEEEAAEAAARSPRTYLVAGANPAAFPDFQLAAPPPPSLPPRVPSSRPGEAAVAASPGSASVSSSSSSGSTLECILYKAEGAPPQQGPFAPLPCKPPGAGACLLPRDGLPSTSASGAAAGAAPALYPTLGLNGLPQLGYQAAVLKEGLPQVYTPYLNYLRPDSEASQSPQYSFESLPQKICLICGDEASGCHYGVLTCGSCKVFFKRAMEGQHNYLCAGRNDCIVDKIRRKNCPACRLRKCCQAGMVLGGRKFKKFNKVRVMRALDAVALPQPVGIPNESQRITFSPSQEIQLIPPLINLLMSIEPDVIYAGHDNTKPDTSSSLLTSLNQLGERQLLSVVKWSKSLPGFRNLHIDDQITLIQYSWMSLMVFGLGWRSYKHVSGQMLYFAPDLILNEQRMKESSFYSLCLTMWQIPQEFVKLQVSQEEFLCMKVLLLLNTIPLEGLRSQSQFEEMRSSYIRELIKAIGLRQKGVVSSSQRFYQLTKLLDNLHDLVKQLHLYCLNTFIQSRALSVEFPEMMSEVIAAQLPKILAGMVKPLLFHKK
# Experimental: Ster. Biochem., Vol. 6 (1975), p. 615-622 and Physiology and Genetics of Reproduction, part A (1975), p. 143-160]. Impuberic rabbits received percutaneously 25 γ of estradiol and 5 days later, the animals were killed. The uterus was removed and homogenized in a buffered mixture of 10 mM of tromethamine, 0.25 M of saccharose and sufficient hydrochloric acid for a pH of 7.4. The homogenate was centrifuged at 105,000 g for one hour and the liquid surnageant or cytosol was adjusted to obtain a dilution of 1:50 (weight of uterus to volume). […] B/T max. is the percentage of tritiated product R bound when no product was added and B/T min. is the percentage of tritiated product R bound when the maximum quantity of cold product R is added. The intersections of line I50 and the curves permit the determination of the CP and CX values. CP is the concentration of cold progesterone which inhibits by 50% the fixation of tritiated product R and CX is the concentration of test product which inhibits by 50% the fixation of tritiated product R. The relative affinity of the test product or RLA is determined by the formula [formula] and the results are reported in Table I.
# [2] = tested on: activity of monoacetate of aldosterone (urinary sodium/potassium ratio); assay: Antialdosteronic activity in surrenalectomized rats; type: in vivo, rat (Sprague Dawley); conditions: male surrenalectomized rats, test product 5 mg/kg subcutaneously, urine collected for 4 hours
# Experimental: Male rats of the Sprague Dawley strain weighing about 180 g were subjected to surrenalectomy and at this moment, the rats received a drink of physiological serum. After about 2 days, the animals were fasted for 16 hours and then received a drink of an aqueous 5% glucose solution. The test products were administered subcutaneously at about 16 hours in the form of a solution or suspension in a 0.25% aqueous carboxymethyl cellulose solution containing Tween 80. One hour later, the animals received on the one hand intraperitoneally a hydrosaline surcharge at a dose of 5 ml/per rat of a 0.9% physiological serum and on the other hand subcutaneously 1 μg/kg of the monoacetate of aldosterone in a 2.5% alcoholic solution. The rats were placed in diuresis cages without food or drink for 4 hours and after this time, a forced urination was effected by pressure on the bladder. The volume of the obtained urine was adjusted to 50 ml and the amounts of sodium and potassium present was determined by an autoanalyzer. The results are expressed as a percentage of inhibition of the activity of 1 μg/kg of subcutaneously injected monoacetate of aldosterone by the ratio of sodium concentration to potassium concentration of the surrenalectomized rats.
Compound,"RLA (relative affinity of the test product, from CP and CX) [1]",percentage of inhibition of the activity of 1 μg/kg of subcutaneously injected monoacetate of aldosterone (sodium/potassium ratio) [2] [%]
"C[C@]12CCC3=C4CCC(=O)C=C4CC[C@H]3[C@@H]1CC[C@@]21CCS(=O)O1 (stereo partly drawn) [product A, B isomer of (17R) 2'-oxidospiro-[Δ^4,9-estradiene-17,5'-(1',2')-oxathiolane]-3-one]",280,88
"C[C@]12C=CC3=C4CCC(=O)C=C4CC[C@H]3[C@@H]1CC[C@@]21CCS(=O)O1 (stereo partly drawn) [product B, B isomer of (17R) 2'-oxidospiro-[Δ^4,9,11-estratriene-17,5'-(1',2')-oxathiolane]-3-one]",400,

# From US4154730A, “Novel 17-spirosultines” (Roussel Uclaf, priority 1976, dated 1979)
